Read-outs that look alike come from different tables or passages of the source.
Legend:
[1] = cited from earlier work
FIG. 17 = assay: FIG. 17
Protocol: Table printed on a drawing sheet, FIG. 17
The patent's description of the figure: FIG. 17 illustrates systematic scanning of the effects of thioamide modification position in a peptide. The thioamide modifications were conducted at different positions of the peptide chain. The resulting peptides were mixed with either papain or trypsin enzymes to measure the changes of fluorescence intensity. The “+” sign after the peptide sequence means the presence of the corresponding enzyme. The “−” sign after the peptide sequence means the lack of the corresponding enzyme.
First reader's note: Raised S after a residue marks the thioamide position; the half-lives are proteolytic half-lives in the presence of papain or trypsin.

[2] = native peptide, DPP-4 substrate

Row | Substance | Papain t1/2 (FIG. 17) | Trypsin t1/2 (FIG. 17) | half-life (in vivo / circulating) [1, 2] | half-life (in vivo / circulating) ([1]; in vivo)
1 | ENT: enterostatin, SEQ ID NO:47 (APGPR; listed as Homo sapiens) |  |  | 5 min | 
2 | GHRH: growth-hormone-releasing hormone, SEQ ID NO:43 |  |  | 19 min | 
3 | GIP: glucose-dependent insulinotropic factor, SEQ ID NO:5 |  |  |  | less than 15 minutes
4 | NPY: neuropeptide Y, SEQ ID NO:23, 36-amino acid peptide |  |  | 15 to 20 min | 
5 | μLLKAAAμ [compound 52] | 5 min | 1 min |  | 
6 | μLL^SKAAAμ [compound 54] | 180 min | 2 min |  | 
7 | μL^SLKAAAμ [compound 53] | 4 min | 4 min |  | 

Further lines, with some results ahead:

Row | Papain t1/2 (FIG. 17) | Trypsin t1/2 (FIG. 17) | Substance | half-life (in vivo / circulating) [1, 2] | half-life (in vivo / circulating) ([1]; in vivo)
8 | 5 min | 2 min | μLLKAAA^Sμ [compound 58] |  | 
9 | 4 min | 2 min | μLLKAA^SAμ [compound 57] |  | 
10 | >30 min | 3 min | μLLKA^SAAμ [compound 56] |  | 
11 | 12 min | >200 min | μLLR^SAAAμ [compound 55] |  | 
